Reference: patent US9139795B2, “Biodegradable lubricant composition” (IDEMITSU KOSAN CO., LTD., priority 2009, dated 2015)

What was measured:
[1] = Saponification value (JIS K 2503); assay type: physicochemical; conditions: base oil ester
[2] = Kinematic viscosity (JIS K 2283); assay type: physicochemical; conditions: base oil ester
[3] = Acid value (JIS K 2501); assay type: physicochemical; conditions: base oil ester
[4] = Biodegradability, modified MITI test method (OECD301C); conditions: base oil ester alone
Experimental: A biodegradation rate was measured according to the modified MITI test method (OECD301C).

| Substance | Saponification Value [1] [mgKOH/g] | Viscosity @ 40° C. [2] [mm^2/s] | Acid Value [3] [mgKOH/g] | Biodegradability [4] [%] |
| --- | --- | --- | --- | --- |
| di(pentaerythritol)oleate [Ester E] | 172 | 556.8 | 3.30 | – |
| trimethylolpropane diisostearate [Ester G] | 176 | 105.0 | 0.06 | 65.0 |
